Test results published in patent publication US20220016118A1, “COMBINATION OF A MCL-1 INHIBITOR AND MIDOSTAURIN, USES AND PHARMACEUTICAL COMPOSITIONS THEREOF” (LES LABORATOIRES SERVIER, priority 2018, published 2022).

How the values were obtained:
MV4-11 FLT3-ITD = assay: Dynamic BH3 profiling (cytochrome C release); format: cell-based; conditions: 4 hours after treatment with Midostaurin (100 nM)
Procedure: Cells were subjected to BH3 profiling assay 4 hours after treatment with Midostaurin (100 nM). Increase in cytochrome C release is a quantitative measure of mitochondrial apoptosis initiation.
BH3 profiling was performed in black 384-well plates according to A. Letai method (https://letailab.dana-farber.org/bh3-profiling.html). Briefly, cells ([…]) were seeded in 6-well plates in 5 mL of complete RPMI medium and exposed to Midostaurin and S63845 given alone or in combination. Control cells received DMSO. Cells were incubated for 6 hours, collected, washed twice in PBS and resuspended in MEB buffer (150 mM mannitol, 10 mM HEPES-KOH pH 7.5, 150 mM KCl, 1 mM EGTA, 1 mM EDTA, 0.1% BSA, 5 mM succinate) to a final density 1×10^6/mL. Cells (15 μL) were added to 384-well plate containing containing peptides % BH3 mimetics and 15 μL of 0.002% digitonin in MEB buffer. Cells were incubated for 1 hour in 25° C. and subsequently fixed in 10 μL of 4% formaldehyde in PBS for 10 minutes. To terminate the fixation, 10 μL of N2 buffer (1.7M Tris, 1.25M Glycine pH 9.1) was added and cells were left at room temperature for 5 minutes. […] Cytochrome C release was measured by flow cytometry.

MV-4-11 = assay: Caspase-Glo 3/7 caspase3.7 activity, dose matrix, MV-4-11; format: cell-based; conditions: single agent, MV-4-11 (FLT3-ITD), 6 hours treatment, highest dose 3 uM
Procedure: (§1) Both compounds were dissolved in 100% DMSO (Sigma, Catalog number D2650) at concentrations of 10 mM and stored at −20° C. until use.
(§2) The cell line Molm13 used in this study was purchased from Leibniz-Institut DSMZ (ACC 554) and MV-4-11 from American Type Cell Collection (ATCC® CRL-9591). The cell lines were cultured at 37° C. in a 5% CO2 incubator, Molm13 in RPMI (Lonza, 12-702F) and MV-4-11 in IMDM (Hyclone, SH30228.01) media complemented with 10% fetal bovine serum (Seradigm, 1500-500). The cells were passaged twice a week and the medium was changed every 2 to 3 days.
(§3) Caspase3.7 activity was measured by the Caspase-Glo® 3/7 kit from Promega (G8092), 9000 cells/well were dispensed into clear-bottom 384-well black plates (Greiner, #781091) in triplicates with 30 μl/well growth media. […] Then 30 ul/well of the Caspase-Glo® 3/7 reagents was added to each well at the end and luminescence was recorded on an Envision plate reader (Perkin Elmer). Measured Luminescence is proportional to the amount of caspase activity present. […]
(§4) The Compound A and Compound B “dose matrix”, consisted of the following: both compounds were subjected to a 11 dose 1:3 serial dilution with the highest dose of 3 uM and down to no-compound control. […] The percent caspase3.7 activity was calculated using the following calculation: (I-control/compound treated)×100. […]

solid tumors = conditions: single agent, Phase I trial; cited from earlier work
AML with FLT3 mutation = conditions: added to cytarabine and daunorubicin induction and cytarabine consolidation; cited from earlier work
Molm13 = assay: Caspase-Glo 3/7 caspase3.7 activity, dose matrix, Molm13; format: cell-based; conditions: single agent, Molm13 (FLT3-ITD), 6 hours treatment, highest dose 3 uM
Procedure: as §1, §2, §3, §4

MV-4-11 cells = assay: Western blot of FLT3-mediated signaling and Bcl-2 family proteins; format: cell-based; conditions: 6 hours
Procedure: B. Western blot analysis of FLT3-mediated signaling pathways and expression of Bcl-2 family proteins in MV-4-11 cells treated for 6 hours with Midostaurin. S63845 alone or in combination. De-phosphorylation of FLT3-ITD lead to inactivation of STAT5 and MAPK and was accompanied by significant downregulation of MAPK-mediated phosphorylation of Mcl-1 at Thr163, site required for Mcl-1 stability. Consequently, Midostaurin reduced level of Mcl-1.
Cells (3×10^6/well) were seeded in 6-well plates in 5 mL of complete RPMI medium and exposed to Midostaurin and S63845 given alone or in combination. Control cells received DMSO. Cells were incubated for 6 hours and then collected, washed twice in PBS and lysed in RIPA buffer (ThermoFisher Scientific) supplemented with 1× Protease and Phosphatase Inhibitor cocktail (ThermoFisher Scientific). Lysates were kept on ice for 20 minutes with vortexing every 5 minutes, then briefly sonicated and centrifuged at 13500 rpm for 15 minutes. Supernatant was collected and protein content was measured using […]. Cell lysates (30-50 μg protein per well) were resolved by electrophoresis on 4%-20% gradient precast sodium dodecyl sulfate-polyacrylamide gels (Bio-Rad, Hercules, Calif.) and transferred to PVDF membrane (Bio-Rad). […]

Q: For CO[C@]1(O)[C@H](N(C)C(=O)c2ccccc2)C[C@H]2O[C@]1(C)n1c3ccccc3c3c4c(c5c6ccccc6n2c5c31)C(=O)NC4 [Compound A, 4′-N-benzoylstaurosporine], which “mitochondrial priming to Mcl-1 inhibitor S63845 and Bim peptide” value (MV4-11 FLT3-ITD) is on record?
A: The value was “increased”.

Q: And the “induction of caspase activity, maximum increase” value (shortened to “induction … maximum increase”) (MV-4-11)?
A: The value was 24%.

Q: And the efficacy (solid tumors)?
A: The efficacy was “limited efficacy”.

Q: And the toxicity (solid tumors)?
A: Its toxicity is “low toxicity”.

Q: What about the overall survival (AML with FLT3 mutation) of the same compound?
A: Its overall survival is “increased overall survival”.

Q: What about the “induction … maximum increase” value (Molm13) of the same compound?
A: Its value is 33%.

Q: And the “level of pro-apoptotic Bim” value (MV-4-11 cells)?
A: The value was “increased”.

Q: What about the “level of Mcl-1” value (MV-4-11 cells; MV-4-11 cells) of the same compound?
A: The value was “reduced”.

Q: For COc1ccccc1-c1nccc(COc2ccccc2C[C@@H](Oc2ncnc3sc(-c4ccc(F)cc4)c(-c4ccc(OCCN5CCN(C)CC5)c(Cl)c4C)c23)C(=O)O)n1 [Compound B, (2R)-2-{[(5Sa)-5-{3-chloro-2-methyl-4-[2-(4-methylpiperazin-1-yl)ethoxy]phenyl}-6-(4-fluorophenyl)thieno[2,3-d]pyrimidin-4-yl]oxy}-3-(2-{[2-(2-methoxyphenyl)pyrimidin-4-yl]methoxy}phenyl)propanoic acid], which “induction … maximum increase” value (MV-4-11) is on record?
A: Its value is 89%.

Q: What about the “induction … maximum increase” value (Molm13) of the same compound?
A: Its value is 87%.
